Results taken from US20140256551A1, “HERBICIDAL COMPOSITIONS COMPRISING ISOXABEN AND FLUFENACET” (Dow AgroSciences LLC, priority 2013, published 2014).

What was measured:
Type in all cases: in vivo
Details in all cases: 200 L/ha water, isoxaben 40, flufenacet 200, diflufenican 100 g ai/ha, observed mean
[1] = system: STEME (Stellaria media (L.) Vill., common chickweed); assay: Trial 1: small plot field experiment in winter wheat, foliar applied, visual % control of STEME
From the text: (§1) Results in Tables 1 and 2 are for foliar applied compositions in small plot research experiments to evaluate the efficacy of the compositions in winter wheat. Application water volume was 200 liters per hectare (L/ha). Crop stage at time of application was 12-13. The values reported are means. […] Colby's equation was used to determine the herbicidal effects expected from the mixtures (Colby, S. R. Calculation of the synergistic and antagonistic response of herbicide combinations. Weeds 1967, 15, 20-22.). More specifically, the following equation was used to calculate the expected activity of mixtures containing two active ingredients, A and B:
(§2) A=observed efficacy of active ingredient A at the same concentration as used in the mixture;
(§3) B=observed efficacy of active ingredient B (or combination B) at the same concentration as used in the mixture.

[2] = system: BRSNW (Brassica napus, winter oilseed rape); assay: Trial 1: small plot field experiment in winter wheat, foliar applied, visual % control of BRSNW
From the text: as §1, §2, §3

[3] = system: GERDI (Geranium dissectum, cutleaf geranium); assay: Trial 1: small plot field experiment in winter wheat, foliar applied, visual % control of GERDI
From the text: as §1, §2, §3

[4] = system: BRSNW (Brassica napus, winter oilseed rape); assay: Trial 2: small plot field experiment in winter wheat, foliar applied, visual % control of BRSNW
From the text: as §1, §2, §3

Row | SMILES | VISUAL % CONTROL OF STEME 28 DAT, Ob [1] [e %] | VISUAL % CONTROL OF BRSNW 28 DAT, Ob [2] [d %] | VISUAL % CONTROL OF GERDI 28 DAT, Ob [3] [d %] | VISUAL % CONTROL OF BRSNW 13 DAT, Ob [4] | VISUAL % CONTROL OF BRSNW 25 DAT, Ob [4]
1 | CC(C)N(C(=O)COc1nnc(C(F)(F)F)s1)c1ccc(F)cc1 [flufenacet, N-(4-fluorophenyl)-N-(1-methylethyl)-2-[[5-(trifluoromethyl)-1,3,4-thiadiazol-2-yl]oxy]acetamide] | 0 | 0 | 0 | 43 cd % | 55 b %
2 | CCC(C)(CC)c1cc(NC(=O)c2c(OC)cccc2OC)on1 [isoxaben, N-[3-(1-ethyl-1-methylpropyl)isoxazol-5-yl]-2,6-dimethoxybenzamide] | 0 | 0 | 0 | 22 de % | 23 cd %
